What all share (assay): relative viability (nuclei count vs DMSO), 5 days (fraction); higher = more cells survive
Compound in the experiment “Crenolanib + Foretinib”: CC1(COc2ccc3c(c2)ncn3-c2ccc3cccc(N4CCC(N)CC4)c3n2)COC1 [Crenolanib] + COc1cc2c(Oc3ccc(NC(=O)C4(C(=O)Nc5ccc(F)cc5)CC4)cc3F)ccnc2cc1OCCCN1CCOCC1 [Foretinib] (partner 0.25 µM)
The procedure, abridged:
(§1)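 A single step with final 0.05% Triton X-100, 1% formaldehyde and 1 ug/ml Hoechst fixed the cells and stained nuclei 5 days after treatment. Lung cancer cell lines in 1536-well plates had been treated by pin tool the day after seeding with one drug alone or a fixed anchor-drug dose plus five library-drug doses (not always all listed) in √10 steps, and nuclei were counted on 4× images. Relative viability is the ratio of nuclei in treated wells to nuclei in vehicle wells, taken as the median of duplicate plates.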

Compound in the experiment “Tivantinib + Navitoclax”: O=C1NC(=O)[C@@H](c2cn3c4c(cccc24)CCC3)[C@@H]1c1c[nH]c2ccccc12 [Tivantinib] + CC1(C)CCC(c2ccc(Cl)cc2)=C(CN2CCN(c3ccc(C(=O)NS(=O)(=O)c4ccc(N[C@H](CCN5CCOCC5)CSc5ccccc5)c(S(=O)(=O)C(F)(F)F)c4)cc3)CC2)C1 [Navitoclax] (partner 0.5 µM)
The procedure, abridged: as §1

Compound in the experiment “Tivantinib + Decitabine”: O=C1NC(=O)[C@@H](c2cn3c4c(cccc24)CCC3)[C@@H]1c1c[nH]c2ccccc12 [Tivantinib] + Nc1ncn([C@H]2C[C@H](O)[C@@H](CO)O2)c(=O)n1 [Decitabine] (partner 2 µM)
The procedure, abridged:
as §1

Compound in the experiment “Crenolanib + Decitabine”: CC1(COc2ccc3c(c2)ncn3-c2ccc3cccc(N4CCC(N)CC4)c3n2)COC1 [Crenolanib] + Nc1ncn([C@H]2C[C@H](O)[C@@H](CO)O2)c(=O)n1 [Decitabine] (partner 2 µM)
In outline: as §1

Take UMC-11: the relative viability with Crenolanib + Foretinib (first compound 0.01 µM) was 1.07; with Crenolanib + Foretinib (first compound 0.03162 µM), 1.11; with Crenolanib + Foretinib (first compound 0.1 µM), 0.95; with Crenolanib + Foretinib (first compound 0.3162 µM) it was 1.21; with Crenolanib + Foretinib (first compound 1 µM) it was 0.947; with Tivantinib + Navitoclax (first compound 0.01 µM), 0.316. Moreover, the relative viability with Tivantinib + Navitoclax (first compound 0.03162 µM) turned out to be 0.334; in the experiment with Tivantinib + Navitoclax (first compound 0.1 µM), 0.29; in the experiment with Tivantinib + Navitoclax (first compound 0.3162 µM), 0.34; with Tivantinib + Decitabine (first compound 0.01 µM), 0.574; with Tivantinib + Decitabine (first compound 0.03162 µM), 0.532; with Tivantinib + Decitabine (first compound 0.1 µM), 0.527. Also, the relative viability with Tivantinib + Decitabine (first compound 0.3162 µM) was 0.434; in the experiment with Crenolanib + Decitabine (first compound 0.01 µM) it was 0.669; with Crenolanib + Decitabine (first compound 0.03162 µM) it was 0.578; in the experiment with Crenolanib + Decitabine (first compound 0.1 µM) it was 0.627; with Crenolanib + Decitabine (first compound 0.3162 µM) it was 0.588; in the experiment with Crenolanib + Decitabine (first compound 1 µM), 0.557.

(Values after the supplement of paper PMC10307832.)
